Source: US12404269B2, “Aminoquinazolinone and aminoisoquinolinone derivatives and application thereof” (ZHEJIANG UNIVERSITY, priority 2018, dated 2025)
Where two headings read alike, the source gives them in different places.

Key:
[1] = system: ZR-75-1 (PTEN loss); test: Tumor cell proliferation, CCK8 method, ZR-75-1; type: cell-based; details: CCK8, ZR-75-1
Method: (§1) The IC50 value was calculated using Graphpad Prism V5.0 software.

[2] = system: MCF7 (PIK3CA mut); test: Tumor cell proliferation, CCK8 method, MCF7; type: cell-based, human; details: CCK8, MCF7, read-out: MCF7 (PIK3CA mut) proliferation IC50
Method: as §1

[3] = target: T1, PI3Kδ (Homo sapiens, UniProt O00329); test: PI3Kδ molecular activity test (ADP-GLO); type: biochemical; details: recombinant protein
T1 construct: purchased Carna Bioscience
T1 sequence (O00329 whole entry): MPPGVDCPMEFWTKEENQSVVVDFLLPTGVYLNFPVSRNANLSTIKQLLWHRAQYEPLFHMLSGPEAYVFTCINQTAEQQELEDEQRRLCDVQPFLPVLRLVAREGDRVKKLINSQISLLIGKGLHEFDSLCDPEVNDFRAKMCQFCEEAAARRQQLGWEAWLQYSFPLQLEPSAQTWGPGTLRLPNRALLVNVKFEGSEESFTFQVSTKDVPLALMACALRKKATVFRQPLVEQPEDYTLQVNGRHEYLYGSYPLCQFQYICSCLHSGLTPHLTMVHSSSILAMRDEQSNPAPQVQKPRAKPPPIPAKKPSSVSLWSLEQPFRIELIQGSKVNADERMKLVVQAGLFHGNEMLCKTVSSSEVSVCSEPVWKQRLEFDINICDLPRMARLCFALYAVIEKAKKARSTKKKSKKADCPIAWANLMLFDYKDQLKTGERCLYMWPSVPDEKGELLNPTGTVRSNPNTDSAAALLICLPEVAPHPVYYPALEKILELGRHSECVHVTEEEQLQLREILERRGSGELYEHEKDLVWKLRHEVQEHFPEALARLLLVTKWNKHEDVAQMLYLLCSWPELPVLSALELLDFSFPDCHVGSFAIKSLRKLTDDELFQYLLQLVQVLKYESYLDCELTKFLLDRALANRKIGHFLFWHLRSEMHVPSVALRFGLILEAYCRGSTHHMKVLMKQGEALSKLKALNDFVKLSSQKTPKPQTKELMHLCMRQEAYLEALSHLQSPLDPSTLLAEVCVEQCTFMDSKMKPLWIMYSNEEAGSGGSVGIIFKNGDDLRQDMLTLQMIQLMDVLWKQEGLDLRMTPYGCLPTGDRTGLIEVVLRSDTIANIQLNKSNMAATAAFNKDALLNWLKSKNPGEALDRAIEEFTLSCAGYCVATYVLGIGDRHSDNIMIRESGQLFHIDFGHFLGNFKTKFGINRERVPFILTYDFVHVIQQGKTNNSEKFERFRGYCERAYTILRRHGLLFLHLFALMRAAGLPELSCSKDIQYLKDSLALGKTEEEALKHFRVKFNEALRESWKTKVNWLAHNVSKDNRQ
T1 sequence (P27986 whole entry partner): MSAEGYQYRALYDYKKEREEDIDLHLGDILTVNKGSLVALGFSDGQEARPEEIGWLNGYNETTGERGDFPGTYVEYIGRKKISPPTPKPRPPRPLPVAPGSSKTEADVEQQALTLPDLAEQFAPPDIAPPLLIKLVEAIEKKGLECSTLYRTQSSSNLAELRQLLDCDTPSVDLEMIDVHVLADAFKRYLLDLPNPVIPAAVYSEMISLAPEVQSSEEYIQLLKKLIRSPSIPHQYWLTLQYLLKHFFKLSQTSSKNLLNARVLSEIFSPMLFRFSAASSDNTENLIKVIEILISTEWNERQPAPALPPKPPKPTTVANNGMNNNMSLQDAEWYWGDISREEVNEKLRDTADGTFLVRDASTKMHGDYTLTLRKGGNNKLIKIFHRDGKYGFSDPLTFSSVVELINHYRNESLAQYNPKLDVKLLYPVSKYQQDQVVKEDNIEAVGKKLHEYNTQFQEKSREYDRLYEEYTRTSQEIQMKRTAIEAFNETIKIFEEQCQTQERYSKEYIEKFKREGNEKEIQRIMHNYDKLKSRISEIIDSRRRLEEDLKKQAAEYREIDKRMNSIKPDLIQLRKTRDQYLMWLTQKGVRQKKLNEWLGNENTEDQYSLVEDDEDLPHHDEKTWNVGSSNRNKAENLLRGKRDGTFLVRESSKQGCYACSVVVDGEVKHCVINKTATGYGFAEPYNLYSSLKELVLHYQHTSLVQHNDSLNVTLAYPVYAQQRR
Method: (§2) Instrument: ELISA Reader Envision™ (PerkinElmer, USA)
(§3) Materials: Human recombinant PI3K and PI3Kδ proteins, purchased from Carna Bioscience; ADP-GLO kit, purchased from Promega.
(§4) Take the PI3Kα Molecular Activity Test as an Example to Describe the Text Method of the PI3K Subtypes
(§5) PI3K-α recombinant protein and substrate ATP were diluted with kinase reaction buffer (50 mM Tris-HCl, pH 7.4, 2.1 mM DTT, 0.05% Tween-20, 10 mM MgCl2). […] The specific reaction system was 2% of DMSO, 0.8 ng/μL PI3K-α, and 100 μM ATP, the positive compound control groups and control wells were set, and there were 3 multiple-wells for each concentration of each sample. After incubating for 2 hours at room temperature, ADP-GLO Reagent and Kinase Detection Reagent were added respectively, and then Envision™ was used to detect the […] readings. The activity rate of the samples were calculated by the sample readings, and the calculation formula was: activity rate=(ODcompound−ODcontrol)/(ODDMSO−ODcontro) ×100%.

[4] = target: T2, PI3Kα (Homo sapiens, UniProt P42336); test: PI3Kα molecular activity test (ADP-GLO); type: biochemical; details: for Selectivity (PI3Kδ IC50/PI3KαIC50): PI3Kδ IC50/PI3Kα IC50; for IC50: recombinant protein, 100 μM ATP, 2 hours at room temperature
T2 construct: purchased Carna Bioscience
T2 sequence (P42336 whole entry): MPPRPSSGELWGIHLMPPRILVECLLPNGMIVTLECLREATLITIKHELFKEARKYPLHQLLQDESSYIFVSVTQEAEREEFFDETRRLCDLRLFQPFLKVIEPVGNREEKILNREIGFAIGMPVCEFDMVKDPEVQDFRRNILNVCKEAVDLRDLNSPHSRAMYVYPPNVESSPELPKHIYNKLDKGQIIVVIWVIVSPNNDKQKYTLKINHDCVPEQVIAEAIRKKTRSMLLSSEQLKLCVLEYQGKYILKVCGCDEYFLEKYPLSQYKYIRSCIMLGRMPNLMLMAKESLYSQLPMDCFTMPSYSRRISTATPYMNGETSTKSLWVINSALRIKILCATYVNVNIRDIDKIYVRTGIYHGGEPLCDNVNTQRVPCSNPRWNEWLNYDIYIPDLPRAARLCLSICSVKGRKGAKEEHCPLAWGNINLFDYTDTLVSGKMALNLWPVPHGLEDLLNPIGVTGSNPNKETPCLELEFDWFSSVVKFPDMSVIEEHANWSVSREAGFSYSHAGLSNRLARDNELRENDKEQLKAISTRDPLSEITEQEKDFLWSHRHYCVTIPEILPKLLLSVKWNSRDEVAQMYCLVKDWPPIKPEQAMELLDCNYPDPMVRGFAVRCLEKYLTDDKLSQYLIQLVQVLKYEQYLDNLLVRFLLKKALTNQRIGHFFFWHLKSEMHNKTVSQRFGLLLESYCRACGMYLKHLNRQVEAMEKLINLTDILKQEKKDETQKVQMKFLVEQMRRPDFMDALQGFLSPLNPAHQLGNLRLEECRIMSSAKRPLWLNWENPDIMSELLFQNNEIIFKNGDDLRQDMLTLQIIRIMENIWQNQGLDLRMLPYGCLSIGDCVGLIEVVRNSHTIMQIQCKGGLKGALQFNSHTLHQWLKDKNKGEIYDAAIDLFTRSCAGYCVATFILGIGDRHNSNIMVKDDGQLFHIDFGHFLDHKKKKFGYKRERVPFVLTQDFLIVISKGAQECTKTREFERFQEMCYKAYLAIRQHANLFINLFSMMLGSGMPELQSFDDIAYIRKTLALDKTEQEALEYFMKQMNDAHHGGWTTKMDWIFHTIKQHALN
T2 sequence (P27986 whole entry partner): as the sequence (P27986 whole entry partner) above
Method: as §2, §3, §4, §5

[5] = system: SW48 (PIK3CA mut); test: Tumor cell proliferation, CCK8 method, SW48; type: cell-based; details: CCK8, SW48, read-out: SW48 (PIK3CA mut) proliferation IC50
Method: as §1

[6] = system: KPL4 (PIK3CA mut); test: Tumor cell proliferation, CCK8 method, KPL4; type: cell-based; details: CCK8, KPL4; read-out: KPL4 (PIK3CA mut) proliferation IC50
Method: as §1

Row | SMILES | IC50 ([1]; Homo sapiens) | IC50 ([2]; Homo sapiens) | IC50 [3] | Selectivity (PI3Kδ IC50/PI3KαIC50) [4] | IC50 [4] | IC50 ([5]; Homo sapiens) | IC50 [6] | IC50 [1] | IC50 [2] | IC50 [5]
1 | COc1c(OCCCN2CCOCC2)ccc2c(=O)n(CC(F)F)c(NC(=O)c3cnc(N)nc3)nc12 [8f-1] | 200 to 1000 nM | < 20 nM | – | – | – | 20 to 200 nM | 20 to 200 nM | – | – | –
2 | CCn1c(NC(=O)c2cnc(N)nc2)nc2c(OC)c(OCCNS(C)(=O)=O)ccc2c1=O [8b-29, 2-amino-N-(3-ethyl-8-methoxy-7-(2-(methylsulfonamido)ethoxy)-4-oxo-3,4-dihydroquinazolin-2-yl) pyrimidine-5-carboxamide] | 200 to 1000 nM | < 20 nM | 200 to 1000 nM | III (“III” represents >10 times) | < 20 nM | 20 to 200 nM | 20 to 200 nM | – | – | –
3 | CCn1c(NC(=O)c2ccc(N)nc2)nc2c(OC)c(OC[C@H](O)CN3CCOCC3)ccc2c1=O [8b-47, (R)-6-amino-N-(3-ethyl-7-(2-hydroxy-3-morpholinopropoxy)-8-methoxy-4-oxo-3,4-dihydroquinazolin-2-yl) nicotinamide] | 200 to 1000 nM | < 20 nM | 200 to 1000 nM | II (“II” represents 5-10 times) | < 20 nM | 20 to 200 nM | 20 to 200 nM | – | – | –
4 | CCn1c(NC(=O)c2cnc(N)nc2)nc2c(OC)c(OCC(C)NS(C)(=O)=O)ccc2c1=O (stereo not drawn) [8b-30, 2-amino-N-(3-ethyl-8-methoxy-7-(2-(methylsulfonamido)propoxy)-4-oxo-3,4-dihydroquinazolin-2-yl) pyrimidine-5-carboxamide] | – | – | 200 to 1000 nM | II (“II” represents 5-10 times) | < 20 nM | – | 20 to 200 nM | 200 to 1000 nM | < 20 nM | 20 to 200 nM
5 | CCOC(=O)COc1ccc2c(=O)n(C)c(NC(=O)c3cnc(N)nc3)nc2c1OC [8a-29] | 200 to 1000 nM | < 20 nM | 200 to 1000 nM | III (“III” represents >10 times) | < 20 nM | 20 to 200 nM | 20 to 200 nM | – | – | –
6 | COc1c(OCC(=O)N(C)C)ccc2c(=O)n(C)c(NC(=O)c3cnc(N)nc3)nc12 [8a-5] | – | – | 20 to 200 nM | II (“II” represents 5-10 times) | < 20 nM | – | – | – | – | –
7 | Cc1nc(NC(=O)N2CCC[C@H]2C(N)=O)sc1-c1ccnc(C(C)(C)C(F)(F)F)c1 [Alpelisib, reference compound] | 20 to 200 nM | < 20 nM | – | – | – | 20 to 200 nM | 20 to 200 nM | – | – | –
8 | CCn1c(NC(=O)c2cnc(N)nc2)nc2c(OC)c(OCCC(N)=O)ccc2c1=O [8b-3] | – | – | 20 to 200 nM | III (“III” represents >10 times) | < 20 nM | – | – | – | – | –
9 | COc1c(OCCC(N)=O)ccc2c(=O)n(C(C)C)c(NC(=O)c3cnc(N)nc3)nc12 [8c-3] | – | – | 20 to 200 nM | I (“I” represents <5 times) | 20 to 200 nM | – | – | – | – | –
10 | CCn1c(NC(=O)c2cnc(N)nc2)nc2c(OC(F)F)c(OCCCN3CCOCC3)ccc2c1=O [8g-1] | 200 to 1000 nM | < 20 nM | – | – | – | 20 to 200 nM | 20 to 200 nM | – | – | –
11 | Cn1c(NC(=O)c2cnc(N)nc2)cc2c3c(ccc2c1=O)OCCOCCO3 [14a′-5] | – | – | 20 to 200 nM | II (“II” represents 5-10 times) | < 20 nM | – | – | – | – | –
12 | COc1c(OCC(N)=O)ccc2c(=O)n(C3CC3)c(NC(=O)c3cnc(N)nc3)nc12 [8d-2] | – | – | 20 to 200 nM | I (“I” represents <5 times) | 20 to 200 nM | – | – | – | – | –
13 | COc1c(OCCCN2CCOCC2)ccc2c(=O)n(C)c(NC(=O)c3cncnc3)cc12 [8a′-8] | – | – | 20 to 200 nM | III (“III” represents >10 times) | < 20 nM | – | – | – | – | –
14 | Cn1c(NC(=O)c2cnc(N)nc2)cc2c3c(ccc2c1=O)OCCO3 [14a′-2] | – | – | 20 to 200 nM | II (“II” represents 5-10 times) | < 20 nM | – | – | – | – | –

Second part, the molecule after the results:

Row | IC50 ([1]; Homo sapiens) | IC50 ([2]; Homo sapiens) | IC50 [3] | Selectivity (PI3Kδ IC50/PI3KαIC50) [4] | IC50 [4] | IC50 ([5]; Homo sapiens) | IC50 [6] | IC50 [1] | IC50 [2] | IC50 [5] | SMILES
15 | 200 to 1000 nM | 20 to 200 nM | < 20 nM | I (“I” represents <5 times) | < 20 nM | 200 to 1000 nM | 200 to 1000 nM | – | – | – | Cn1c(NC(=O)c2cnc(N)nc2)nc2c3c(ccc2c1=O)OCCCCO3 [14a-4]
16 | 200 to 1000 nM | < 20 nM | 20 to 200 nM | II (“II” represents 5-10 times) | < 20 nM | 20 to 200 nM | 20 to 200 nM | – | – | – | COc1c(OCCNS(C)(=O)=O)ccc2c(=O)n(C)c(NC(=O)c3ccc(N)nc3)nc12 [8a-40, 6-amino-N-(8-methoxy-3-methyl-7-(2-(methylsulfonamido)ethoxy)-4-oxo-3,4-dihydroquinazoline-2-yl) nicotinamide]
17 | 200 to 1000 nM | < 20 nM | 20 to 200 nM | I (“I” represents <5 times) | 20 to 200 nM | 200 to 1000 nM | 20 to 200 nM | – | – | – | CCn1c(NC(=O)c2cnc(N)nc2)nc2c3c(ccc2c1=O)OCCOCCOCCOCCO3 [14b-11]
18 | 20 to 200 nM | < 20 nM | < 20 nM | I (“I” represents <5 times) | < 20 nM | 20 to 200 nM | 20 to 200 nM | – | – | – | CCn1c(NC(=O)c2cnc(N)nc2)cc2c3c(ccc2c1=O)OCCOCCOCCO3 [14b′-6]
19 | 200 to 1000 nM | < 20 nM | 20 to 200 nM | II (“II” represents 5-10 times) | < 20 nM | 20 to 200 nM | 20 to 200 nM | – | – | – | COc1c(OCCNS(C)(=O)=O)ccc2c(=O)n(C)c(NC(=O)c3cnc(N)nc3)nc12 [8a-30, 2-amino-N-(8-methoxy-3-methyl-7-(2-(methylsulfonamido)ethoxy)-4-oxo-3,4-dihydroquinazolin-2-yl) pyrimidine-5-carboxamide]
20 | < 20 nM | < 20 nM | 20 to 200 nM | III (“III” represents >10 times) | < 20 nM | < 20 nM | < 20 nM | – | – | – | COc1c(OCCC(N)=O)ccc2c(=O)n(C)c(NC(=O)c3cnc(N)nc3)nc12 [8a-3]
21 | 20 to 200 nM | < 20 nM | < 20 nM | II (“II” represents 5-10 times) | < 20 nM | 20 to 200 nM | < 20 nM | – | – | – | CCn1c(NC(=O)c2cnc(N)nc2)nc2c(OC)c(OCCS(N)(=O)=O)ccc2c1=O [8b-11]
22 | 200 to 1000 nM | 20 to 200 nM | 20 to 200 nM | II (“II” represents 5-10 times) | < 20 nM | 200 to 1000 nM | 200 to 1000 nM | – | – | – | Cn1c(NC(=O)c2cnc(N)nc2)nc2c3c(ccc2c1=O)OCCCCCCCO3 [14a-7]
23 | 20 to 200 nM | < 20 nM | 20 to 200 nM | III (“III” represents >10 times) | < 20 nM | 20 to 200 nM | 20 to 200 nM | – | – | – | CCn1c(NC(=O)c2cnc(N)nc2)cc2c(OC)c(OCC(N)=O)ccc2c1=O [8b′-2]
24 | 20 to 200 nM | < 20 nM | 20 to 200 nM | II (“II” represents 5-10 times) | < 20 nM | < 20 nM | 20 to 200 nM | – | – | – | CCn1c(NC(=O)c2cnc(N)nc2)nc2c(OC)c(O)ccc2c1=O [7b, 2-amino-N-(3-ethyl-7-hydroxy-8-methoxy-4-oxo-3 ,4-dihydroquinazolin-2-yl) pyrimidine-5-carboxamide]
25 | 200 to 1000 nM | < 20 nM | 20 to 200 nM | II (“II” represents 5-10 times) | < 20 nM | 20 to 200 nM | 20 to 200 nM | – | – | – | COc1c(OC[C@@H](O)CN2CCOCC2)ccc2c(=O)n(C)c(NC(=O)c3ccc(N)nc3)nc12 [8a-38, (S)-6-amino-N-(7-(2-hydroxy-3-morpholinopropoxy)-8-methoxy-3-methyl-4-oxo-3,4-dihydroouinazolin-2-yl) nicotinamide]
26 | 200 to 1000 nM | < 20 nM | 20 to 200 nM | I (“I” represents <5 times) | 20 to 200 nM | 200 to 1000 nM | 20 to 200 nM | – | – | – | CCn1c(NC(=O)c2cnc(N)nc2)nc2c3c(ccc2c1=O)OCCCCO3 [14b-4]
27 | 200 to 1000 nM | < 20 nM | < 20 nM | I (“I” represents <5 times) | < 20 nM | 200 to 1000 nM | 20 to 200 nM | – | – | – | CCn1c(NC(=O)c2cnc(N)nc2)nc2c3c(ccc2c1=O)OCCCCCCCCO3 [14b-8]
28 | 200 to 1000 nM | 20 to 200 nM | 20 to 200 nM | II (“II” represents 5-10 times) | < 20 nM | 200 to 1000 nM | 200 to 1000 nM | – | – | – | Cn1c(NC(=O)c2cnc(N)nc2)nc2c3c(ccc2c1=O)OCCCCCO3 [14a-5]
